Here are results for two compounds from paper PMC12731105, “Design and Synthesis of New Quinoxaline Analogs to Regenerate Sensory Auditory Hair Cells” (Cells, 2025).

Data set [1] in a line: Plasma protein binding (rapid equilibrium dialysis). The data set is classed as in vitro ADME, mice. As to conditions: mouse, plasma, mice plasma protein binding (footnote); RED, 10 µg/mL, four hours, 37 °C; read-out: PPB (% Bound) (converted). A general note: In equilibrium dialysis only unbound substance equilibrates across the membrane.
Data set [2] is described as follows: Metabolic stability against S9 fraction. It is filed as in vitro ADME. To be noted: human, liver S9 fraction, against human S9 fraction (footnote), NADPH, 37 °C; read-out: Metabolic Stability t1/2 (converted). How it is done: The metabolic stability of the prodrug was assessed in the mouse liver S9 fraction. Briefly, 5 μg/mL of prodrug was incubated with 1 mg/mL mouse liver S9 fraction supplemented with 1 mg/mL nicotinamide adenine dinucleotide phosphate (NADPH) in Dulbecco’s phosphate-buffered saline at 37 °C. At designated time points (i.e., 0, 0.5, 1, 2 h), 100 μL samples were collected and quenched immediately with 300 μL methanol containing 1 μg/mL internal standard. Samples were vortexed for 30 s and centrifuged at 15,000 rpm for 10 min. Supernatant was assessed by LC/MS.

The test system of a further data set is HT-1080. The experiment in a line: TACS MTT cell proliferation / metabolic activity assay in HT-1080. The data set is classed as cell-based, human. As to conditions: HT-1080, 0.1 to 100 μM. How it is done: (§1) HEI-OC1 cells derived from the mouse OC (kindly provided by Dr. F. Kalinec) were cultured under permissive conditions (33 °C, 10% CO2) as described in [22]. Additionally, we assessed the activity of Qx-derived compounds in the mouse neuroblastoma cell line, Neuro-2A, and the human fibrosarcoma HT-1080 (ATCC, Manassas, VA, USA) following the standard cell culture guidelines provided by the vendor.
(§2) In vitro cell proliferation effects of all ten initial compounds (Figure 1A,B) were tested on HEI-OC1, Neuro-2A and HT-1080 cells by TACS® 3-(4,5-dimethylthiazol-2-yl)-2,5-diphenyltetrazolium bromide (MTT) Cell Proliferation Assay (R&D Systems, Minneapolis, MN, USA, 4890-025-K), following the manufacturer’s protocol. Absorbance was measured with SpectraMax® M Series Multi-Mode Microplate Reader with Soft Max Pro 7.2 GxP Software (Molecular Devices, Sunnyvale, CA, USA), and the average OD in control cells was taken as 100% of viability. Upon selecting the most viable compounds (Qx-294 and Qx-301), we proceeded with in vivo experiments. For zebrafish treatment, animals were incubated for varied times with different concentrations (50, 100, 150, 200, 250, and 300 μg/mL) of Qx-294 or Qx-301 diluted in swimming (E3) media or administered via IP injections. Mice treatment followed the same procedures as described in [18]. Following treatment, animals or tissue samples were incubated in Click-it EdU or Click-it Plus TUNEL kits (Thermo Scientific, Waltham, MA, USA), following the manufacturer’s instructions to label proliferating and apoptotic cells, respectively.

In the next data set the test system is Neuro-2A. The experiment in a line: TACS MTT cell proliferation / metabolic activity assay in Neuro-2A. The data set is classed as cell-based, mouse. To be noted: 0.1 to 100 μM. How it is done:
as §1, §2

Data set [3] relates to mechanotransduction channel activity of neuromast HCs. As to the kind of experiment: FM1-43 uptake in zebrafish neuromasts. The data set is classed as in vivo, zebrafish (Danio rerio). As to conditions: 300 μM, 7 h, with or without 1 h recovery. How it is done:
(§3) The styryl pyridinium dye FM1-43 provides an optical measure of mechanotransduction channel function and, therefore, was used as a proxy for the viability of the neuromast cells treated with QX-294 or QX-301, as well as indirect information on the functional capability of newly formed HCs. FM1-43FX (Thermo Scientific, Waltham, MA, USA) uptake experiments in zebrafish were performed as previously described. Zebrafish were incubated with E3 alone (control) or in the presence of Qx-294 or Qx-301, both at 300 μM, for 7 h and then immediately exposed to 3 μM FM1-43FX for 40 s. Alternatively, animals were transferred to a fresh E3 solution for 1 h and then exposed to the dye. For mouse treatment, 24, 48, and 72 h after animals were injected with […] Qx-294 or Qx-301, their cochleae were dissected, transiently exposed to FM1-43 FX dye (1 mg/mL) for 45 s, and then fixed in 4% PFA. All animals were P28 at completion of the treatment. Fluorescence incorporated was quantified according to [19] using ImageJ (ImageJ2 1.54r).

For data set [4], the system named is mouse organ of Corti. The experiment in a line: EdU proliferation assay in the mouse organ of Corti. To be noted: mice, single IP 300 mg/kg; for EdU-positive cells in the OC at 72 h: 72 h treatment group; for EdU-positive cells in the OC at 24 h and 48 h: EdU 50 mg/kg, 4 h, unpaired T-test, p < 0.05. It is filed as in vivo. How it is done: (§4) C57BL/6J male and female mice between postnatal day 24 and 30 P-24-30) were randomized into control and experimental groups (9 mice per group per compound), with each experimental group receiving a single intraperitoneal (IP) injection of Qx-294 or Qx-301 at a dose of 300 mg/kg body weight, dissolved in dimethyl sulfoxide (DMSO). Controls consisted of treatment with DMSO alone (vehicle). A total of 90 adult wild-type C57/BL6 mice were used in this study. Based on the analysis, animals were examined at various times following treatment as described below.
as §2
Cell numbers in mouse cochleae or fish, as well as fish neuromast morphologies, were evaluated in 25 zebrafish per drug and treatment group across three experimental runs. For mouse analyses, 18 cochleae (from 9 mice) per treatment and three experimental repetitions were examined. Images were analyzed at 200X magnification, obtained from different neuromasts and cochlear regions (apex, middle, and base). HCs were quantified in the mouse OC by counting M7a-positive cells, with HC identity further confirmed by phalloidin-labeled stereocilia. Apoptosis and cell proliferation events, on the other hand, were quantified by counting TUNEL- and EdU-positive cells, respectively. […] The number of HCs (IHCs and OHCs) is expressed as units per 200 μm. […] IHCs and OHCs were counted on reconstructed confocal stacks using NIH ImageJ v1.8.0 software. […] Reliability statistics were calculated in SPSS v22.0. […] Fluorescence incorporation following treatment with FM1-43 was quantified according to [19] using ImageJ. […]

The test system of data set [5] is mouse organ of Corti. The experiment in a line: TUNEL assay in the mouse organ of Corti. It is filed as in vivo. To be noted: mice, any treatment group (24, 48, 72 h). How it is done: as §4
In vitro cell proliferation effects of all ten initial compounds (Figure 1A,B) were tested on HEI-OC1, Neuro-2A and HT-1080 cells by TACS® 3-(4,5-dimethylthiazol-2-yl)-2,5-diphenyltetrazolium bromide (MTT) Cell Proliferation Assay (R&D Systems, Minneapolis, MN, USA, 4890-025-K), following the manufacturer’s protocol. Absorbance was measured with SpectraMax® M Series Multi-Mode Microplate Reader with Soft Max Pro 7.2 GxP Software (Molecular Devices, Sunnyvale, CA, USA), and the average OD in control cells was taken as 100% of viability. Upon selecting the most viable compounds (Qx-294 and Qx-301), we proceeded with in vivo experiments. […]

Data set [6] deals with mechanotransduction channel activity of mouse cochlear HCs. The experiment in a line: FM1-43 uptake in mouse cochlear HCs. The data set is classed as in vivo. To be noted: mice, 24, 48 and 72 h after injection. The method, then: as §3

Take `c1ccc2nc(N3CCOCC3)cnc2c1` [Qx-294, 2-(morpholine)-quinoxaline]: the fraction unbound at 4 h, 10 µg/mL in data set [1] was 0.115. In addition, in data set [2], the half-life at 5 μg/mL is approximately 57 h. Further, in the data set with HT-1080, the “Proliferative state across all tested concentrations” value is reported as “modest yet active proliferative state”. Moreover, the “Proliferative state across all tested concentrations” value in the data set on Neuro-2A was “modest yet active proliferative state”. For the same compound, the “FM1-43 fluorescence intensity in neuromasts vs control” value in data set [3] is recorded as “no significant differences”. For the same compound, in the data set with mouse organ of Corti [4], the “EdU-positive cells in the OC at 72 h” value is reported as “no proliferating (EdU-positive) cells were observed”; the “EdU-positive cells in the OC at 24 h and 48 h” value is recorded as “higher percentage of EdU-positive cells”. Further, the “Apoptosis (TUNEL) in the OC” value in the data set on mouse organ of Corti [5] was “no signs of apoptosis”. The “FM1-43 fluorescence intensity incorporated by the cochleae vs control” value in data set [6] was “did not show any significant differences from the control samples”.

On to `c1ccc2nc(N3CCCC3)cnc2c1` [Qx-301, 2-(pyrrolidine)-quinoxaline], for which, in data set [1], the fraction unbound at 4 h, 10 µg/mL is approximately 0.68. For the same compound, in data set [2], the half-life at 5 μg/mL was 9.1 ± 8.4 h. In the data set on HT-1080, the “Proliferative state across all tested concentrations” value is recorded as “modest yet active proliferative state”. Moreover, the “Proliferative state across all tested concentrations” value in the data set with Neuro-2A is “modest yet active proliferative state”. In addition, in data set [3], the “FM1-43 fluorescence intensity in neuromasts vs control” value is “no significant differences”. Also, in the data set on mouse organ of Corti [4], the “EdU-positive cells in the OC at 72 h” value is reported as “no proliferating (EdU-positive) cells were observed”; the “EdU-positive cells in the OC at 24 h and 48 h” value is given as “higher percentage of EdU-positive cells”. In addition, the “Apoptosis (TUNEL) in the OC” value with mouse organ of Corti [5] was “no signs of apoptosis”. Moreover, the “FM1-43 fluorescence intensity incorporated by the cochleae vs control” value in data set [6] is “did not show any significant differences from the control samples”.
